Assay results published in US8362000B2, “Azetidinyl diamides as monoacylglycerol lipase inhibitors” (Janssen Pharmaceutica NV, priority 2009, dated 2013).

What follows are compounds tested against T1, mutant MGL (Homo sapiens, UniProt Q99685, L169S/L176S) (assay: MGL ThermoFluor assay - mutant). Details: ThermoFluor concentration-response, read-out: MGL mutant ThermoFluor Kd.
T1 sequence (Q99685 1-303 L169S/L176S): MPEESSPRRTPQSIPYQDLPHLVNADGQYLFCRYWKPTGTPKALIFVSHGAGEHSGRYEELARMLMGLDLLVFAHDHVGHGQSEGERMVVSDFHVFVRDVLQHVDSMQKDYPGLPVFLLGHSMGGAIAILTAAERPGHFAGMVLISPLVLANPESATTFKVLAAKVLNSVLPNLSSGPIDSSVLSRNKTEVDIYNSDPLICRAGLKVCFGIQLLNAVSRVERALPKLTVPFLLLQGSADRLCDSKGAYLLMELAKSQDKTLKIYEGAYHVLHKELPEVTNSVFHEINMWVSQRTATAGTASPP
Type: binding

| SMILES | Kd |
| --- | --- |
| O=C(c1ccccc1)C1CCC(C(=O)N2CC(N3CCN(C(=O)c4ccccc4)CC3)C2)CC1 (stereo not shown) [Cpd 108, Phenyl[4-({3-[4-(phenylcarbonyl)piperazin-1-yl]azetidin-1-yl}carbonyl)cyclohexyl]methanone] | 1.25 µM |
| O=C(/C=C/c1ccccc1Br)N1CC(N2CCN(C(=O)c3ccccc3)CC2)C1 [Cpd 104, 1-{1-[(2E)-3-(2-Bromophenyl)prop-2-enoyl]azetidin-3-yl}-4-(phenylcarbonyl)piperazine] | 5 µM |
| O=C(c1ccc(-c2ccccc2)cc1)N1CCN(C2CN(C(=O)c3cscn3)C2)C(c2ccccc2)C1 (stereo not shown) [Cpd 1402, 4-(Biphenyl-4-ylcarbonyl)-2-phenyl-1-[1-(1,3-thiazol-4-ylcarbonyl)azetidin-3-yl]piperazine] | 2 µM |
| O=C(c1ccc2c(c1)C(Cc1ccccc1)(Cc1ccccc1)C(=O)N2Cc1ccccc1)N1CC(N2CCN(C(=O)c3nccs3)CC2)C1 [Cpd 1431] | 0.035 µM |
| O=C(c1ccc(Cc2ccccc2)cc1)N1CC(N2CCN(C(=O)c3nccs3)C(c3ccccc3)C2)C1 (stereo not shown) [Cpd 1464, 4-{1-[(4-Benzylphenyl)carbonyl]azetidin-3-yl}-2-phenyl-1-(1,3-thiazol-2-ylcarbonyl)piperazine] | > 31.2 µM |
| O=C(c1ccccc1)N1CCN(C2CN(C(=O)c3sc4cc(F)ccc4c3C3CC3)C2)CC1 [Cpd 528] | 0.049 µM |
| O=C(c1ccc(-c2ccccc2)cc1)N1CC(N2CCN(C(=O)c3nccs3)C(c3ccccc3)C2)C1 (stereo not shown) [Cpd 1404, 4-[1-(Biphenyl-4-ylcarbonyl)azetidin-3-yl]-2-phenyl-1-(1,3-thiazol-2-ylcarbonyl)piperazine] | > 31.2 µM |
| O=C(c1cnon1)N1CC(N2CCN(C(=O)c3cc4cc(C(F)(F)F)ccc4s3)CC2)C1 [Cpd 921, 1-[1-(1,2,5-Oxadiazol-3-ylcarbonyl)azetidin-3-yl]-4-{[5-(trifluoromethyl)-1-benzothiophen-2-yl]carbonyl}piperazine] | 4.26 µM |
| CC(=O)Oc1ccc(C(=O)N2CC(N3CCN(C(=O)c4nccs4)CC3)C2)cc1 [Cpd 471, 4-({3-[4-(1,3-Thiazol-2-ylcarbonyl)piperazin-1-yl]azetidin-1-yl}carbonyl)phenyl acetate] | 2.5 µM |
| O=C(c1nccs1)N1CCN(C2CN(C(=O)c3cc(Br)ccc3F)C2)CC1 [Cpd 915] | 5 µM |
| O=C(c1cc(F)cc(Br)c1)N1CC(N2CCN(C(=O)c3nccs3)CC2)C1 [Cpd 912] | 1.32 µM |
| O=C(c1ccccc1)N1CCN(C2CN(C(=O)C3CCC(C(F)(F)F)CC3)C2)CC1 (stereo not shown) [Cpd 502] | > 76.7 µM |

Second part, the compound after the results:

| Kd | SMILES |
| --- | --- |
| 0.0833 µM | CCCn1ccc2cc(C(=O)N3CC(N4CCN(C(=O)c5ccccc5)CC4)C3)ccc21 [Cpd 42, 5-({3-[4-(Phenylcarbonyl)piperazin-1-yl]azetidin-1-yl}carbonyl)-1-propyl-1H-indole] |
| 0.108 µM | O=C(c1ccc(-c2ccccc2)cc1)N1CCN(C2CN(C(=O)c3ccc[nH]3)C2)CC1 [Cpd 1383, 1-(Biphenyl-4-ylcarbonyl)-4-[1-(1H-pyrrol-2-ylcarbonyl)azetidin-3-yl]piperazine] |
| 0.002 µM | O=C(c1ccc(SCc2cccc(Cl)c2Cl)cc1)N1CC(N2CCN(C(=O)c3nccs3)CC2)C1 [Cpd 413, 1-[1-({4-[(2,3-Dichlorobenzyl)sulfanyl]phenyl}carbonyl)azetidin-3-yl]-4-(1,3-thiazol-2-ylcarbonyl)piperazine] |
| 0.37 µM | O=C(c1ccccc1)N1CCN(C2CN(C(=O)c3ccc(-n4cccc4)cc3)C2)CC1 [Cpd 28, 1-(Phenylcarbonyl)-4-(1-{[4-(1H-pyrrol-1-yl)phenyl]carbonyl}azetidin-3-yl)piperazine] |
| 0.542 µM | O=C(c1ccccc1)N1CCN(C2CN(C(=O)c3cccc(CNc4ccccc4F)c3)C2)CC1 [Cpd 561] |
| 0.025 µM | O=C(c1ccccc1)N1CCN(C2CN(C(=O)c3ccc(NCc4ccc(Cl)c(Cl)c4)cc3)C2)CC1 [Cpd 493, N-(3,4-Dichlorobenzyl)-4-({3-[4-(phenylcarbonyl)piperazin-1-yl]azetidin-1-yl}carbonyl)aniline] |
| 4.82 µM | O=C(c1ccccc1)N1CCN(C2CN(C(=O)c3ccc(Cc4ccccc4)cc3)C2)C(CO)C1 (stereo not shown) [Cpd 457, [1-{1-[(4-Benzylphenyl)carbonyl]azetidin-3-yl}-4-(phenylcarbonyl)piperazin-2-yl]methanol] |
| 0.454 µM | Cn1cccc1C(=O)N1CCN(C2CN(C(=O)c3ccc(-c4ccccc4)cc3)C2)CC1 [Cpd 11, 1-[1-(Biphenyl-4-ylcarbonyl)azetidin-3-yl]-4-[(1-methyl-1H-pyrrol-2-yl)carbonyl]piperazine] |
| 49.5 µM | O=C(c1ccccc1)N1CCN(C2CN(C(=O)c3cncc(-c4ccccc4)c3)C2)CC1 [Cpd 80, 1-(Phenylcarbonyl)-4-{1-[(5-phenylpyridin-3-yl)carbonyl]azetidin-3-yl}piperazine] |
| 0.118 µM | CCN(CC)c1ccc(C(=O)N2CC(N3CCN(C(=O)c4ccccc4)CC3)C2)cc1 [Cpd 30, N,N-Diethyl-4-({3-[4-(phenylcarbonyl)piperazin-1-yl]azetidin-1-yl}carbonyl)aniline] |
| > 76.7 µM | Cc1cc(Br)ccc1C(=O)N1CC(N2CCN(C(=O)c3ccccc3)CC2)C1 [Cpd 22, 1-{1-[(4-Bromo-2-methylphenyl)carbonyl]azetidin-3-yl}-4-(phenylcarbonyl)piperazine] |
| 0.287 µM | CC(C)(C)OC(=O)Nc1ccc(C(=O)N2CC(N3CCN(C(=O)c4ccccc4)CC3)C2)cc1 [Cpd 496, tert-Butyl [4-({3-[4-(phenylcarbonyl)piperazin-1-yl]azetidin-1-yl}carbonyl)phenyl]carbamate] |
| 25 µM | O=C(c1ccccc1)N1CCN(C2CN(C(=O)c3ccc4[nH]c5c(c4c3)CCCC5)C2)CC1 [Cpd 55, 6-({3-[4-(Phenylcarbonyl)piperazin-1-yl]azetidin-1-yl}carbonyl)-2,3,4,9-tetrahydro-1H-carbazole] |
| 0.114 µM | O=C(c1ccccc1)N1CCN(C2CN(C(=O)c3ccc(CNc4ccc(F)c(F)c4F)cc3)C2)CC1 [Cpd 557] |
| 2.73 µM | O=C(c1ccccc1)N1CCN(C2CN(C(=O)c3cccc(NCc4ccccc4)c3)C2)CC1 [Cpd 531, N-Benzyl-3-({3-[4-(phenylcarbonyl)piperazin-1-yl]azetidin-1-yl}carbonyl)aniline] |
| 2 µM | O=C(c1ccccc1)N1CCN(C2CN(C(=O)c3ccc(SCc4cccnc4)cc3)C2)CC1 [Cpd 555] |
| 0.571 µM | N#Cc1ccc(-c2ccc(C(=O)N3CC(N4CCN(C(=O)c5ccccc5)CC4)C3)cc2)cc1 [Cpd 82, 4′-({3-[4-(Phenylcarbonyl)piperazin-1-yl]azetidin-1-yl}carbonyl)biphenyl-4-carbonitrile] |

Same assay, conditions: ThermoFluor thermal stability binding assay, read-out: MGL mutant ThermoFluor Kd

| SMILES | Kd |
| --- | --- |
| O=C(c1nccs1)N1CCN(C2CN(C(=O)c3cnn(-c4ccccc4)c3C(F)(F)F)C2)CC1 [Cpd 1392] | 0.659 µM |
| O=C(c1ccc2c(c1)CCCN2c1cccc(C(F)(F)F)c1)N1CC(N2CCN(C(=O)c3nccs3)CC2)C1 [Cpd 374, 6-({3-[4-(1,3-Thiazol-2-ylcarbonyl)piperazin-1-yl]azetidin-1-yl}carbonyl)-1-[3-(trifluoromethyl)phenyl]-1,2,3,4-tetrahydroquinoline] | 0.0022 µM |
| O=C(c1cscn1)N1CCN(C2CN(C(=O)c3cc(-c4ccccc4)oc3C(F)(F)F)C2)CC1 [Cpd 1397] | 0.5 µM |
| Cc1oc(-c2ccccc2)cc1C(=O)N1CC(N2CCN(C(=O)c3cscn3)CC2)C1 [Cpd 1396] | 0.317 µM |
| CC(C)(C)OC(=O)N1CCC(c2cccc(C(=O)N3CC(N4CCN(C(=O)c5ccccc5)CC4)C3)c2)CC1 [Cpd 538] | 2.59 µM |
| O=C(c1ccc(OCc2ccc(Cl)s2)cc1)N1CC(N2CCN(C(=O)c3cscn3)CC2)C1 [Cpd 963] | 0.102 µM |
| O=C(c1ccc(-c2ccccc2)cc1)N1CC(N2CCN(C(=O)c3cscn3)C(c3ccccc3)C2)C1 (stereo not shown) [Cpd 1481] | > 31.2 µM |
| O=C(c1nccs1)N1CCN(C2CN(C(=O)c3cccc4nc(Cc5ccccc5F)[nH]c34)C2)CC1 [Cpd 989] | 1.25 µM |
| O=C(c1cscn1)N1CCN(C2CN(C(=O)c3cccc4nc(-c5cccc(Cl)c5)[nH]c34)C2)CC1 [Cpd 1389] | 0.422 µM |
| Cc1nc(-c2ccc(F)cc2)sc1C(=O)N1CC(N2CCN(C(=O)c3cscn3)CC2)C1 [Cpd 1386] | 0.133 µM |
| O=C(c1ccc(-c2ccccc2)cc1)N1CC(N2CCN(C(=O)C3CCCC3)CC2)C1 [Cpd 1398] | 0.182 µM |
| COc1cc(C(=O)N2CC(N3CCN(C(=O)c4nccs4)CC3)C2)ccc1-c1cccc(C(F)(F)F)c1 [Cpd 247, 1-(1-{[2-Methoxy-3′-(trifluoromethyl)biphenyl-4-yl]carbonyl}azetidin-3-yl)-4-(1,3-thiazol-2-ylcarbonyl)piperazine] | 0.0004 µM |
| O=C(c1nccs1)N1CCN(C2CN(C(=O)c3cccc4nc(Cc5cccc(F)c5)[nH]c34)C2)CC1 [Cpd 990] | 1 µM |
| CC(=O)N1c2ccc(Br)cc2CCC1C(=O)N1CC(N2CCN(C(=O)c3cscn3)CC2)C1 (stereo not shown) [Cpd 377] | > 76.7 µM |
| O=C(c1ccc(OCc2ccc(Cl)s2)cc1)N1CC(N2CCN(C(=O)c3nccs3)CC2)C1 [Cpd 962] | 0.005 µM |

More lines, now with the values ahead:

| Kd | SMILES |
| --- | --- |
| 0.0909 µM | O=C(c1ccccc1)N1CCN(C2CN(C(=O)c3ccc(OCc4cccc(OC(F)(F)F)c4)cc3)C2)CC1 [Cpd 393] |
| 0.02 µM | O=C(c1ccccc1)N1CCN(C2CN(C(=O)c3ccc(OCc4cccc(Cl)c4Cl)c(F)c3)C2)CC1 [Cpd 483] |
| 0.25 µM | O=C(c1ccccc1)N1CCN(C2CN(C(=O)c3ccc4c(ccn4S(=O)(=O)c4ccccc4)c3)C2)CC1 [Cpd 130] |
| 0.01 µM | COc1cc(C(=O)N2CC(N3CCN(C(=O)c4ccccc4)CC3)C2)ccc1-c1cccc(C(F)(F)F)c1 [Cpd 249, 1-(1-{[2-Methoxy-3′-(trifluoromethyl)biphenyl-4-yl]carbonyl}azetidin-3-yl)-4-(phenylcarbonyl)piperazine] |
| 0.0408 µM | O=C(c1ccccc1)N1CCN(C2CN(C(=O)c3ccc(OCc4ccc(Cl)c(Cl)c4)c(Cl)c3)C2)CC1 [Cpd 399] |
